Patent publication US12421243B2, “Pharmaceutically effective compounds inhibiting selectively the myosin 2 isoforms” (PRINTNET KERESKEDELMI ÉS SZOLGÁLTATÓ KFT., priority 2018, dated 2025)

Assays:
[1] = molecular target: recombinant Dictyostelium miozin (Dictyostelium) (Dictyostelium discoideum, UniProt P08799); experiment: actomyosin steady state ATPase measurement, Dictyostelium myosin; format: biochemical; conditions: for IC50: concentration required for semi-maximal inhibition of ATPase, read-out: IC50 (μM) Dicty; for % inhibition. complete Dicty: maximum value of inhibition of ATPase activity; for inhibition at 5 µM: read-out: % inhibition at 5 μM (or 10 μM if racemate) Dicty; for inhibition at 50 µM: read-out: % inhibition at 50 μM (or 100 μM if racemate) Dicty
Text: (§1) […]; (ii) the concentration required for semi-maximal inhibition.

[2] = molecular target: isolated smooth muscle myosin (UniProt P10587); format: biochemical, chamois; conditions: for % inhibition at 5 μM (or 10 μM if racemate) Smooth: 5 μM (10 μM if racemate); for % inhibition at 5 μM (or 10 μM if racemate) Smooth / % inhibition at 50 μM (or 100 μM if racemate) Smooth: ATPase activity; for % inhibition at 50 μM (or 100 μM if racemate) Smooth: 50 μM (100 μM if racemate); for % inhibition. complete Smooth: maximum value of inhibition of ATPase activity
Chain of isolated smooth muscle myosin (P10587 whole entry): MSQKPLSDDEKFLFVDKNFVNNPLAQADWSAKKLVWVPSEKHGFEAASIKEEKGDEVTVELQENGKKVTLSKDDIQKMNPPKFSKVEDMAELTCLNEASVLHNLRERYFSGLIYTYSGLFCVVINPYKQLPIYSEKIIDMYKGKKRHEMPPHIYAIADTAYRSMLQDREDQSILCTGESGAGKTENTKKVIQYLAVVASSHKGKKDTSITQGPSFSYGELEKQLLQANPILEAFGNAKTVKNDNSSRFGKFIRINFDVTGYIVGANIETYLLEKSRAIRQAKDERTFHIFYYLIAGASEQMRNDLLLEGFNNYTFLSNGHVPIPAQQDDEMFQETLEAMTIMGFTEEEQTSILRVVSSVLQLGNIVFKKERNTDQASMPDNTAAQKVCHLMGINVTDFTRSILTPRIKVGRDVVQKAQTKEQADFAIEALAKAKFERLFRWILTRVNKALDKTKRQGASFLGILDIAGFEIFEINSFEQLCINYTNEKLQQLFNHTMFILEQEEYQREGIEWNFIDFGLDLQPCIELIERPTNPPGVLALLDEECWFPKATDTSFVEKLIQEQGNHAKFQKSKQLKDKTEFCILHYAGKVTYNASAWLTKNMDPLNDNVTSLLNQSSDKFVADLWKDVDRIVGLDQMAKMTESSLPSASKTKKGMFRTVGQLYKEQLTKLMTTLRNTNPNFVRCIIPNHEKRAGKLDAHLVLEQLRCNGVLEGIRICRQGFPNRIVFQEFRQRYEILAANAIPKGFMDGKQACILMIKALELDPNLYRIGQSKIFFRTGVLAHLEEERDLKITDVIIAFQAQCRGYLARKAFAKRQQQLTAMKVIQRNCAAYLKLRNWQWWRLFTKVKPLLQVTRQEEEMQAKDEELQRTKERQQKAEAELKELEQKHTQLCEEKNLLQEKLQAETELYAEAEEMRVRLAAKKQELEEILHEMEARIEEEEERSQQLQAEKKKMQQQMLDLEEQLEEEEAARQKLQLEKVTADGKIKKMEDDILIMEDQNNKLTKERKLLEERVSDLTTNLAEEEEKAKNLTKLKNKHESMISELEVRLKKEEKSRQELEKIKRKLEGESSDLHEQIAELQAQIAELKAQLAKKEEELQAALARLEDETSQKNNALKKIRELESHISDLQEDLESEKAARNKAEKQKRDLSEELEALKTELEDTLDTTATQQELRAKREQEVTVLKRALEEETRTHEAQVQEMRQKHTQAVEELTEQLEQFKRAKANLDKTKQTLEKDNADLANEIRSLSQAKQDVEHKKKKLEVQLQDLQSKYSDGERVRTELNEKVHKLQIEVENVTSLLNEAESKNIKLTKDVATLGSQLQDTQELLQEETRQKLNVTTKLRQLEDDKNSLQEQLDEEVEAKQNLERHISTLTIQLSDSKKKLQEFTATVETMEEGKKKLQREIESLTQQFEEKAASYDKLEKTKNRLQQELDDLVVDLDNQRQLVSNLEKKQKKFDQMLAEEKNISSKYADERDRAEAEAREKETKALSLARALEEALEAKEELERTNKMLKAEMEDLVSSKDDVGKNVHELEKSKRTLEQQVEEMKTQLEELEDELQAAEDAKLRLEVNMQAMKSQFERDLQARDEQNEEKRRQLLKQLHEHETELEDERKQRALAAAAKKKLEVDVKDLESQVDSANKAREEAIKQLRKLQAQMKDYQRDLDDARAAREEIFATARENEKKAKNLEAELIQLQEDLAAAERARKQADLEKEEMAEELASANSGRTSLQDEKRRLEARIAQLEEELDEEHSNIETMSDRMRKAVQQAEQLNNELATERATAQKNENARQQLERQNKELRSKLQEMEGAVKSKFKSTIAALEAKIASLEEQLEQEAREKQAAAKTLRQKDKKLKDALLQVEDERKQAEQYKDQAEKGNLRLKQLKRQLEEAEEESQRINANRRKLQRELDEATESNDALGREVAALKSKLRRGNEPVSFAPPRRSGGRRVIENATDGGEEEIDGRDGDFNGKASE

[3] = molecular target: T1, isolated porcine cardiac ventricular myocardium (cardiac) (Sus scrofa, UniProt P79293); experiment: actomyosin steady state ATPase measurement, cardiac myosin; format: biochemical; conditions: for IC50: concentration required for semi-maximal inhibition of ATPase; for % inhibition. complete cardiac: maximum value of inhibition of ATPase activity; for inhibition at 5 µM: read-out: % inhibition at 5 μM (or 10 μM if racemate) cardiac, 5 μM (10 μM if racemate); for inhibition at 5 µM / inhibition at 50 µM: ATPase activity; for inhibition at 50 µM: read-out: % inhibition at 50 μM (or 100 μM if racemate) cardiac, 50 μM (100 μM if racemate)
T1 construct: isolated porcine cardiac ventricular myocardium (cardiac); from tissue; host or cells: porcine cardiac ventricle
T1 sequence (P79293 whole entry): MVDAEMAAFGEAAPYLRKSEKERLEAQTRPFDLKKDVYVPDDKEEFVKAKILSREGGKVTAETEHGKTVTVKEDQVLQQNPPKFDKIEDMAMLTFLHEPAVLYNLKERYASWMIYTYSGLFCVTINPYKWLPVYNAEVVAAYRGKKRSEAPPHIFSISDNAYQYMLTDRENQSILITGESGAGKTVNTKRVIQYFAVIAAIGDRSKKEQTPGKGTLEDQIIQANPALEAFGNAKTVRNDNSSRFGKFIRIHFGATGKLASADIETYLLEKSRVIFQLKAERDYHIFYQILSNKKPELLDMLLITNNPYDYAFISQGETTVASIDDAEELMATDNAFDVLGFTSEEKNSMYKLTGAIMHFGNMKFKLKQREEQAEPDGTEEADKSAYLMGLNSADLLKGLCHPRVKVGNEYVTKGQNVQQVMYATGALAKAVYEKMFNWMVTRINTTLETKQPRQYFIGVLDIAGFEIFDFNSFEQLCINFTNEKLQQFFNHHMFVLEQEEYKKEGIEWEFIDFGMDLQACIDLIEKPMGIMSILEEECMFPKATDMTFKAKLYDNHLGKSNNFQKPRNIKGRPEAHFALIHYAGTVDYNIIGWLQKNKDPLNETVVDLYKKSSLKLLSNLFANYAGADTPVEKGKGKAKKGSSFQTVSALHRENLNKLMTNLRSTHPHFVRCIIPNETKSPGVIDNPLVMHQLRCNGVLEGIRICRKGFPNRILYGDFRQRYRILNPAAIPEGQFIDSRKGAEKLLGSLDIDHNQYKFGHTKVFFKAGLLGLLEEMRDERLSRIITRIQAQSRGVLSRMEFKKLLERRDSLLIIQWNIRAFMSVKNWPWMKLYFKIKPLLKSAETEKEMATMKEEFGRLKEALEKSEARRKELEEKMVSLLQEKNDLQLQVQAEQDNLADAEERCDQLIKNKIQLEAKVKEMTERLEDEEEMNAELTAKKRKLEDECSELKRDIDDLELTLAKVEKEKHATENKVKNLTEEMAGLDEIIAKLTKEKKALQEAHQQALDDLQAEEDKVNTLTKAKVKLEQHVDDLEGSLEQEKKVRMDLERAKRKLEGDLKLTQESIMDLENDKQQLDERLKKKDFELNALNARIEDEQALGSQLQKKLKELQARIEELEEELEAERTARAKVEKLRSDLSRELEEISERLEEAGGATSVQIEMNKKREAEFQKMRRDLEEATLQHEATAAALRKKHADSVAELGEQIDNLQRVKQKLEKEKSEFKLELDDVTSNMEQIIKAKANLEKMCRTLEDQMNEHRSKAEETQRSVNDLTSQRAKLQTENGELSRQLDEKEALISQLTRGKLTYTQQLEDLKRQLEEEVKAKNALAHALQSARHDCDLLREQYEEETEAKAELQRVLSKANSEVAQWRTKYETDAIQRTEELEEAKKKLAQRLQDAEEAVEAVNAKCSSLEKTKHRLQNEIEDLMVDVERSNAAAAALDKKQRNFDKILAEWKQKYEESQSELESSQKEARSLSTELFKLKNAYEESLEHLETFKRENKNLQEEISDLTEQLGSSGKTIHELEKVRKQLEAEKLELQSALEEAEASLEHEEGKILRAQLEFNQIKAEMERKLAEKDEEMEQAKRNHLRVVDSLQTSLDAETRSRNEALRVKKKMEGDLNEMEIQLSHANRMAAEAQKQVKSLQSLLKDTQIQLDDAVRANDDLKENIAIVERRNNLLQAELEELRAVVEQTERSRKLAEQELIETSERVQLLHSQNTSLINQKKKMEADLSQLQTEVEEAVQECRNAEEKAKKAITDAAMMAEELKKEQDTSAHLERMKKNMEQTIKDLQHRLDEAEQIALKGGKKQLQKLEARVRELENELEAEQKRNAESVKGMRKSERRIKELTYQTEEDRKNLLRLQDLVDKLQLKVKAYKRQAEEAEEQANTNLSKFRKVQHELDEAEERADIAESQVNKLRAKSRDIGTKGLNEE
Text: as §1

[4] = molecular target: isolated smooth muscle myosin (UniProt P10587); format: biochemical, chamois; conditions: concentration required for semi-maximal inhibition of ATPase
Text: (ii) the concentration required for semi-maximal inhibition.

[5] = system: isolated rabbit skeletal muscle myosin (skeletal); experiment: actomyosin steady state ATPase measurement, skeletal muscle myosin; format: biochemical; conditions: for % inhibition at 5 μM (or 10 μM if racemate) Skeletal: 5 μM (10 μM if racemate); for % inhibition at 5 μM (or 10 μM if racemate) Skeletal / % inhibition at 50 μM (or 100 μM if racemate) Skeletal: ATPase activity; for % inhibition at 50 μM (or 100 μM if racemate) Skeletal: 50 μM (100 μM if racemate); for IC50: concentration required for semi-maximal inhibition of ATPase; for Inhibition (%) skeletal: maximum inhibition, compounds in IC50 range 1-2 μM; for % inhibition. complete Skeletal: maximum value of inhibition of ATPase activity
Text: as §1

[6] = molecular target: recombinant human non-muscle myosin 2 NM2C (Homo sapiens, UniProt Q7Z406); experiment: actomyosin steady state ATPase measurement, NM2C; format: biochemical; conditions: for IC50: concentration required for semi-maximal inhibition of ATPase; for % inhibition. complete NM2C: maximum value of inhibition of ATPase activity; for inhibition at 5 µM: read-out: % inhibition at 5 μM (or 10 μM if racemate) NM2C, 5 μM (10 μM if racemate); for inhibition at 5 µM / inhibition at 50 µM: ATPase activity; for inhibition at 50 µM: read-out: % inhibition at 50 μM (or 100 μM if racemate) NM2C, 50 μM (100 μM if racemate)
Text: as §1

Compound | IC50 [1] [µM] | % inhibition. complete Dicty [1] [%] | inhibition at 5 µM [1] [%] | inhibition at 50 µM [1] [%] | % inhibition at 5 μM (or 10 μM if racemate) Smooth [2] [%] | % inhibition at 50 μM (or 100 μM if racemate) Smooth [2] [%] | % inhibition. complete Smooth [2] [%] | IC50 [3] [µM] | % inhibition. complete cardiac [3] [%] | inhibition at 5 µM [3] [%] | inhibition at 50 µM [3] [%] | IC50 [4] [µM] | % inhibition at 5 μM (or 10 μM if racemate) Skeletal [5] [%] | % inhibition at 50 μM (or 100 μM if racemate) Skeletal [5] [%] | IC50 [5] [µM] | % inhibition. complete Skeletal [5] [%] | IC50 [6] [µM] | % inhibition. complete NM2C [6] [%] | inhibition at 5 µM [6] [%] | inhibition at 50 µM [6] [%] | other results
COc1ccc(N2CC[C@@]3(O)C(=O)c4ccsc4N=C23)cn1 [Compound 219, (9S)-9-Hydroxy-12-(6-methoxypyridin-3-yl)-4-thia-2,12-diazatricyclo[7.3.0.0^3,7]dodeca-1,3(7),5-trien-8-one] | 43 | 100 | 6 | 56 | 15 | 32 | 36 | 4.1 | 84 | 44 | 78 | 6.9 | 69 | 91 | 1.8 | 94 | 8.1 | 21 | 8 | 18 | Inhibition (%) cardiac ([3]; maximum inhibition, compounds in IC50 range 3-6 μM): 84%; Inhibition (%) skeletal [5]: 94%
CC(=O)c1ccc(N2CCC3(O)C(=O)c4cc(C)sc4N=C23)cc1 (stereo not shown) [Compound 225, 12-(4-Acetylphenyl)-9-hydroxy-5-methyl-4-thia-2,12-diazatricyclo[7.3.0.0^3,7]dodeca-1,3(7),5-trien-8-one] | 4.1 | 100 | 64 | 97 | 68 | 96 | 100 | 2.4 | 100 | 68 | 96 | 2.2 | 93 | 95 | 0.17 | 96 | 2.8 | 78 | 47 | 74 | Inhibition (%) Dicty ([1]; maximum inhibition, compounds in IC50 range 1-11 μM): 100%
Cc1cc2c(s1)N=C1N(c3ccc(C#N)cc3)CCC1(O)C2=O (stereo not shown) [Compound 224, 4-{9-Hydroxy-5-methyl-8-oxo-4-thia-2,12-diazatricyclo[7.3.0.0^3,7]dodeca-1,3(7),5-trien-12-yl}benzonitrile] | 2.8 | 89 | 64 | 86 | 72 | 96 | 99 | 1.7 | 99 | 72 | 96 | 1.7 | 94 | 98 | 0.21 | 98 | 1.2 | 93 | 72 | 91 | –
Cc1cc2c(s1)N=C1N(c3ccc(N)cc3)CCC1(O)C2=O (stereo not shown) [Compound 221, 12-(4-Aminophenyl)-9-hydroxy-5-methyl-4-thia-2,12-diazatricyclo[7.3.0.0^3,7]dodeca-1,3(7),5-trien-8-one] | 11.6 | 100 | 27 | 85 | 43 | 87 | 97 | 0.9 | 79 | 65 | 78 | 6 | 65 | 91 | 1.8 | 92 | 4.1 | 61 | 32 | 56 | Inhibition (%) skeletal [5]: 92%; Inhibition (%) NM2C ([6]; maximum inhibition, compounds in IC50 range 1-5 μM): 61%
